For 1 compound, Ki results are on record in BindingDB's records for patent US10035761 (Revivia Pharmaceuticals, Inc., 2018).

The structures appear in SMILES notation.

The target in experiment [1] is Sodium-dependent serotonin transporter (Homo sapiens, UniProt P31645). Kind of experiment: In Vitro Pharmacology Assay. On the procedure: (§1) The monoamine transporters inhibitory activities of selected cycloalkylmethylamines of Formula (I) are reported herein. The compounds were evaluated using well established radioligand binding assays protocols (Galli, A. et al., J. Exp. Biol. 1995, 198, 2197-2212; Giros, B. et al., Trends Pharmcol. Sci. 1993, 14, 43-49; Gu, H. et al., J. Biol. Chem. 1994, 269(10), 7124-7130; Shearman, L. P. et al, Am. J. Physiol., 1998, 275(6 Pt 1), C1621-1629; Wolf, W. A. et al., J. Biol. Chem. 1992, 267(29), 20820-20825). The human recombinant transporter proteins dopamine (DAT), norepinephrine (NET) and serotonin (SERT) were selected for the in vitro assays. The radioligand binding assays were carried out at 11 different test concentrations 0.1 nM to 1 μM.

Experiment [2] deals with Sodium-dependent noradrenaline transporter (Homo sapiens, UniProt P23975). Put plainly: In Vitro Pharmacology Assay. On the procedure:
as §1

Chain of Sodium-dependent noradrenaline transporter (P23975 whole entry): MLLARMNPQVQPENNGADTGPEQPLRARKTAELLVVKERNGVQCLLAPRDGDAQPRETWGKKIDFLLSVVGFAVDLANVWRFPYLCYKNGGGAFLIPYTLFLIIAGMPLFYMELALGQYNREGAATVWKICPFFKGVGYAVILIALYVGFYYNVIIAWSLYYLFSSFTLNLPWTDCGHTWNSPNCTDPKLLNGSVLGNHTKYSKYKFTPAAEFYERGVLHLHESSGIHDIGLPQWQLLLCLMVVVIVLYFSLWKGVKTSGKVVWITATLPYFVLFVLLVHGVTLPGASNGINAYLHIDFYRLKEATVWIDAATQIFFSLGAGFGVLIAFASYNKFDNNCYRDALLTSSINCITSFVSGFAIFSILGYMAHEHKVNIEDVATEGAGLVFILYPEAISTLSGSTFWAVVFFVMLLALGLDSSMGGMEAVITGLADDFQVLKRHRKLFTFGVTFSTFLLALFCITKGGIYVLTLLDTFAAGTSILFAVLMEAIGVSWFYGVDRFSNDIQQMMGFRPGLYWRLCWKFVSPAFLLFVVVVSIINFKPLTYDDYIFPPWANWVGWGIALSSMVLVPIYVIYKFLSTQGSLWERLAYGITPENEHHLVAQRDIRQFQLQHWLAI
Chain of Sodium-dependent serotonin transporter (P31645 whole entry): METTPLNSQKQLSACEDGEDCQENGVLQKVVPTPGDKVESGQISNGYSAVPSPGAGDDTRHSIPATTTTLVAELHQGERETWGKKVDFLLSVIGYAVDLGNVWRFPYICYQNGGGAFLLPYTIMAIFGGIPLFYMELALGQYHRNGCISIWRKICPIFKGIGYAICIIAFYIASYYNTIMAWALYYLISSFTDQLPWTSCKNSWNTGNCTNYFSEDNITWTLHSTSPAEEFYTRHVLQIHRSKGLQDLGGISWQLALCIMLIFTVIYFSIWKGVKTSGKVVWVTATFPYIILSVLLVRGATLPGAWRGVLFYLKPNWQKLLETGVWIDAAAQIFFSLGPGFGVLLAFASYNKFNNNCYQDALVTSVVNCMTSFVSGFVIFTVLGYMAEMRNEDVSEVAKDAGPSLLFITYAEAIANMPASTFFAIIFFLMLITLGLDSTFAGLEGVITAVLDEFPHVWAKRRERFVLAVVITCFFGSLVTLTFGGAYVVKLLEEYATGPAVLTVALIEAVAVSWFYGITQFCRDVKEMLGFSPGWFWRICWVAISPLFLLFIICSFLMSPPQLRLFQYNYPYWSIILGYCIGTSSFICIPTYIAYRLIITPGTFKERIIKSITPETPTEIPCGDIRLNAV

For the compound `CCSCCNC(CC(C)C)C1(c2ccc(Cl)c(Cl)c2)CCC1` (configuration not stated) [US10035761, Compound 13f], the values for the Ki in experiment [1] and in experiment [2] were 224 nM and 119 nM, respectively.
